# Reference: patent publication US4704361A, “Pharmaceutical compositions containing the cytidine monophospate of 5-acetamido-3,5-dideoxy-D-glycero-D-galactononulosaminic acid and a method for preparing said compound” (Compagnia di Ricerca Chimica S.p.A., priority 1983, dated 1987)
# Read-outs that look alike come from different tables or passages of the source.
# How the values were obtained:
# Neuro-2a cells = experiment: CMP-NANA-induced neurite formation (sprouting) in cultured cells; format: cell-based
# Method: Neuro-2a cells (American Type Culture Collection, Rockville, USA) were seeded at standard conditions (10^4 -10^6 cells/100 mm dish). Incubation time for quantification of sprouting was 24 hours. Thereafter fixation of the cells was performed by means of 3% glutaraldehyde containing buffered saline. Quantitative determination of nerve cell growth was performed with Zeiss D-7082 Micreo-Videomat.
# Neurite sprouting was used as the parameter for nerve cell differentiation. The samples fixed in formaline were stained for better contrast.
# Cerebral glycoproteins = Cerebral glycoproteins content (NANA) in rats on the 21st day of life; format: in vivo, rat
# Method: (§1) The study has been performed with 16 couples of the rats Charles River in their reproductive age, selected by uniform weight. On the third day of gestation they have been arbitrarily divided into 4 groups. […] Dietetic treatment have been continued during the entire periods of gestation and nursing.
# (§2) Between the 14th and the 21st day of the life, the puppies of the 2nd and the 4th group have been treated with 20 mg/kg of CMP-NANA (Sigma Chemical Co.) i.p., the 1st and the 3rd group have been treated with the equal volume of physiological solution.
# (§3) On the 21st day two male puppies from each group have been fixed on the holed table and for 20 minutes placed under the open field experiment. The periods related to the explorative activity have been observed and quantified. At the end of the experiment, the animals have been sacrified by decapitation, and their brains have been removed and examined for the content of the gangliosides (extractions performed by the method of G. Tettamanti et al., Biochim. Biophys. Acta 296, 160-170 (1973) as well as of the glycoproteins (extractions by the method of B. Berra et al., in Membranes in Tumor Growth, Galeotti et al., Eds., Elsevier, pp. 81-87, 1982; F. Omodeo Sale et al., Cell Mol. Biol. 27, 455-458, 1981).
# (§4) In both cases the content of NANA has been determined.
# [1] = system: Neuro-2a neurine neuroblastoma; experiment: In vitro neuronal maturation, index of maturation of neuroblastoma cells; format: cell-based; settings: for Index of maturation (I.M.): standard media 10 ± 2, I.M. = L.P. × N.P.
# Method: Neuro-2a neurine neuroblastoma (American Type Culture Collection-CCL 131) was grown in the medium consisting of fecal calf serum (Irvine Scientific, Irvine, Ca.), to which non-essential amino acids, antibiotic (5-20 mg %), and bicarbonate (50-100 mg %), were added. The cells were grown routinely on corning plastic tissue-culture flasks.
# Cells for assay were plated on corning plastic Petri dishes, in the medium with or without CMP-NANA. In order to examine the role of CMP-NANA on in vitro neuron maturation, it was incorporated into the culture media at the time of plating or 24 or 48 hours postplating. The mean number and length of cell processes were repeatedly determined for a minimum of 100 cells per treatment group, to provide a semiquantitative index of neuron maturation (Table 5).
# Index of maturation (I.M.) in Table 5 is expressed as: I.M.=L.P.×N.P., where:
# L.P. 10:=the length of process to nearest 10μ
# N.P.=Total number of processes
# The effects of the various concentrations of CMP-NANA were evaluated with high resolution Nomarski optics.
# Acid hydrolysis at pH 1 = format: physicochemical; settings: pH 1, 10 min, room temperature
# Method: [α]D =-11.8° (c=0.2, water).
# Striatal gangliosides = experiment: Levels of striatal gangliosides of the rat following injuries by kainic acid; format: in vivo; settings: for Striatal gangliosides (NANA content): relative to control = 100%
# Method: Male rats, Charles River CD, body weight of 180-200 g, have been divided into 4 groups, each group having 20 animals. The first group has been classified as the control group, the second group has been treated with physiological solution, the third group has been treated with kainic acid and the fourth group has been treated with CMP-NANA (20 mg/kg/day, i.p.) and kainic acid.
# The treatment with CMP-NANA has been started one week before the treatment with kainic acid and has been continued until the animals have been sacrified.
# The animals have been anesthetized with pentobarbital (60 mg/kg i.p.) and then treated with kainic acid (2 μg in 1 μl of the physiological solution), that has been injected into striatum.
# The control rats have been treated with an equal volume (1 μl) of the physiological solution.
# After 7 days the rats have been sacrified and the striatum has been removed. Each single determination has been performed with the pool of 5 samples. The gangliosides have been extracted and determined (as NANA content) as described previously.
# rats = experiment: Open field experiment, explorative activity of rat puppies on the 21st day of life; format: in vivo
# Method: as §1, §2, §3
# LD50 in albino rats = settings: rat, in vivo, albino rats of 20±1 g
# Cerebral gangliosides = Cerebral gangliosides content (NANA) in rats on the 21st day of life; format: in vivo, rat
# Description: The study has been performed with 16 couples of the rats Charles River in their reproductive age, selected by uniform weight. On the third day of gestation they have been arbitrarily divided into 4 groups. The two first groups have been fed with a semisynthetic diet that contained 10% of casein. Dietetic treatment have been continued during the entire periods of gestation and nursing.
# as §2, §3, §4
# Storage stability = format: physicochemical; settings: powder, -10° C.
# Method: A 20 ml aliquot (containing about 8000 units of the enzyme) of the enzyme, CTP (4-5 mmol), N-acetylneuraminic acid (1 mmol) were added in portions, during 2 hours, to the solution (200 ml) of Tris-buffer, Mg^+2, and β-thio-propionic acid. The last three components were present in the concentrations 0.4, 0.04, and 0.002M, respectively. The mixture was incubated at 36°±0.2° C. for 6 hours, then diluted 8 times with water and rised slowly through a column of Dowex 1×4, bicarbonate form, 50-100 mesh (0.6 l resin/mmol of I). First washing was performed with 1 mM ammonium hydroxide, then with 3-4 vol. of a linear gradient from 0.02-2.0M triethylammonium hydrogencarbonate, pH 7.8.
# [2] = Adsorption and distribution of labeled CMP-NANA in the rat; format: in vivo; settings: 20 mg/kg i.m.; for Radioactivity level: Blood; for tissue uptake at 0.5 h / tissue uptake at 1 h / tissue uptake at 2 h / tissue uptake at 4 h: im, read-out: Radioactivity level
# Method: CMP-NANA [9-^3 H] has been purchased from NEN (New England Nuclear, 6072 Dreieich, West Germany).
# The rats fasting for about 18 hours, have been treated with CMP-NANA, dissolved in the phosphate buffer, at the dose of 20 mg/kg i.m. (specific activity=1000 mCi/mg). After 30 min., 1 hour, 2 hours and 4 hours periods the animals have been sacrified in the groups of 4, then liver, kidney and brain have been taken away from the animals and accurately weighted.
# 100 μg samples of the previous organs, and an analogous sample of the blood have been dissolved in Soluene 350 (Packard) and have been counted on the scintillation instrument in the liquid phase, on addition of the scintillating liquid.
# The measurements have been quantized using a canal to canal-ratio technique. Table 3 illustrates the averaged results of all measurements.
# [3] = normal and hypoproteinic diet, 20 mg/kg i.p.
smiles,measurement,setting,value
"CC(=O)N[C@H]1[C@H]([C@H](O)[C@H](O)CO)O[C@](OP(=O)(O)OC[C@H]2O[C@@H](n3ccc(N)nc3=O)[C@H](O)[C@@H]2O)(C(=O)O)C[C@@H]1O [CMP-NANA, cytidine monophosphate of 5-acetamido-3,5-dideoxy-D-glycero-D-galactononulosaminic acid]",sprouting of the nerves (in words),Neuro-2a cells; 50 μg/ml,nearly doubled
same,dose-response relationship for number of neurites (in words),"Neuro-2a cells; 5-50 μg/ml, 24 hours",close dose-response relationship
same,increase of sprouting above the original steady-state value,Neuro-2a cells; 30 μ/ml (so in the source),~50%
same,activity at 5 µg/mL,"Neuro-2a cells; Mus musculus, N2a, 5 μg/ml, 24 hours, 0 μg/ml = 100 ± 15, read-out: Extent of sprouting",110 ± 15%
same,activity at 10 µg/mL,"Neuro-2a cells; Mus musculus, N2a, 10 μg/ml, 24 hours, 0 μg/ml = 100 ± 15, read-out: Extent of sprouting",117 ± 20%
same,activity at 20 µg/mL,"Neuro-2a cells; Mus musculus, N2a, 20 μg/ml, 24 hours, 0 μg/ml = 100 ± 15, read-out: Extent of sprouting",132 ± 25%
same,activity at 30 µg/mL,"Neuro-2a cells; Mus musculus, N2a, 30 μg/ml, 24 hours, 0 μg/ml = 100 ± 15, read-out: Extent of sprouting",145 ± 30%
same,activity at 50 µg/mL,"Neuro-2a cells; Mus musculus, N2a, 50 μg/ml, 24 hours, 0 μg/ml = 100 ± 15, read-out: Extent of sprouting",178 ± 35%
same,Cerebral glycoproteins,"Cerebral glycoproteins; Group 2: 20% casein + CMP-NANA 20 mg/kg i.p., relative to 2nd group = 100% (reference), p < 0.01-0.001 vs nontreatment (Group 1: 79)",100%
same,Cerebral glycoproteins,"Cerebral glycoproteins; Group 4: 10% casein + CMP-NANA 20 mg/kg i.p., relative to 2nd group = 100%, p < 0.01-0.001 vs nontreatment (Group 3: 69)",75%
same,NANA content in the cerebral glycoproteins (in words),Cerebral glycoproteins; [3],inhanced in statistically significant manner
same,change of I.M. versus standard media (in words),[1]; 2 μg/ml,doubled
same,change of I.M. versus standard media (in words),[1]; 20 μg/ml,ten time higher
same,Index of maturation (I.M.),[1]; SM + 1 μg/ml,20 ± 5
same,Index of maturation (I.M.),[1]; SM + 5 μg/ml,45 ± 5
same,Index of maturation (I.M.),[1]; SM + 10 μg/ml,68 ± 10
same,Index of maturation (I.M.),[1]; SM + 20 μg/ml,92 ± 10
same,hydrolysis in acid,Acid hydrolysis at pH 1,affording CMP and N-acetylneuraminic acid (1.0:1.0 mol)
same,level of gangliosides in the striatum (in words),Striatal gangliosides; CMP-NANA 20 mg/kg/day i.p. with kainic acid,hindered the diminuation of the level of gangliosides in the striatum
same,Striatal gangliosides (NANA content),Striatal gangliosides; Group 4: kainic acid (2 μg into striatum) and CMP-NANA 20 mg/kg/day i.p.,88%
same,Explorative activity,"rats; Group 2: 20% casein + CMP-NANA 20 mg/kg i.p., relative to 2nd group = 100% (reference), p < 0.01-0.001 vs nontreatment (Group 1: 47)",100%
same,Explorative activity,"rats; Group 4: 10% casein + CMP-NANA 20 mg/kg i.p., relative to 2nd group = 100%, p < 0.01-0.001 vs nontreatment (Group 3: 12)",52%
same,explorative activity (in words),rats; [3],inhanced in statistically significant manner
same,LD50,"LD50 in albino rats; ip, intraperitoneal",900 mg/kg
same,LD50,"LD50 in albino rats; po, per os",2400 mg/kg
same,Cerebral gangliosides,"Cerebral gangliosides; Group 2: 20% casein + CMP-NANA 20 mg/kg i.p., relative to 2nd group = 100% (reference), p < 0.01-0.001 vs nontreatment (Group 1: 75)",100%
same,Cerebral gangliosides,"Cerebral gangliosides; Group 4: 10% casein + CMP-NANA 20 mg/kg i.p., relative to 2nd group = 100%, p < 0.01-0.001 vs nontreatment (Group 3: 41)",68%
same,NANA content in the cerebral gangliosides (in words),Cerebral gangliosides; [3],inhanced in statistically significant manner
same,storage stability,Storage stability,at least one year
"C=C(C)[C@H]1CN[C@H](C(=O)O)[C@H]1CC(=O)O [kainic acid, reference compound]",Striatal gangliosides (NANA content),"Striatal gangliosides; Group 3: kainic acid alone, 2 μg into striatum",66%
[3H]C(O)[C@@H](O)[C@@H](O)[C@@H]1O[C@](OP(=O)(O)OC[C@H]2O[C@@H](n3ccc(N)nc3=O)[C@H](O)[C@@H]2O)(C(=O)O)C[C@H](O)[C@H]1NC(C)=O (stereo partly drawn) [[^-3 H]-labeled CMP--NANA],radioactivity decline in blood and organs (in words),[2],"rapidly diminished in the blood, and more slowly in the organs"
same,radioactivity level of the brain relative to liver and kidney (in words),[2],inferior to those of the liver and kidney
same,Radioactivity level,[2]; 30 min,12.2 % of the administrated dose pe
same,Radioactivity level,[2]; 1 hr,5.7 % of the administrated dose pe
same,Radioactivity level,[2]; 2 hrs,3.2 % of the administrated dose pe
same,Radioactivity level,[2]; 4 hrs,1.9 % of the administrated dose pe
same,tissue uptake at 0.5 h,"[2]; Brain, 30 min",6.2 %ID/g
same,tissue uptake at 1 h,"[2]; Brain, 1 hr",7.8 %ID/g
same,tissue uptake at 2 h,"[2]; Brain, 2 hrs",4.9 %ID/g
same,tissue uptake at 4 h,"[2]; Brain, 4 hrs",2.4 %ID/g
same,tissue uptake at 0.5 h,"[2]; Kidney, 30 min",2.6 %ID/g
same,tissue uptake at 1 h,"[2]; Kidney, 1 hr",5.2 %ID/g
same,tissue uptake at 2 h,"[2]; Kidney, 2 hrs",3.3 %ID/g
same,tissue uptake at 4 h,"[2]; Kidney, 4 hrs",1.6 %ID/g
same,tissue uptake at 0.5 h,"[2]; Liver, 30 min",3.9 %ID/g
same,tissue uptake at 1 h,"[2]; Liver, 1 hr",4.7 %ID/g
same,tissue uptake at 2 h,"[2]; Liver, 2 hrs",2.8 %ID/g
same,tissue uptake at 4 h,"[2]; Liver, 4 hrs",0.9 %ID/g
